Data from US20260317304A1, “TEAD INHIBITORS AND METHODS OF USE” (Sporos BioDiscovery, Inc., priority 2022, published 2026).

What was measured:
MSTO-211H xenograft = assay: Mouse xenograft MSTO-211H tumors compared to prior art TEAD inhibitor; assay type: in vivo, BALB/c nude mice; conditions: 7 days of treatment, PO BID, 12.5 mg/kg Compound 5
Procedure: This study evaluated the in vivo anti-tumor efficacy of test compounds in BALB/c nude mice for treatment of MSTO-211H xenograft of lung cancer.
The MSTO-211H tumor cells were maintained in vitro in RPMI 1640 medium supplemented with 10% Fetal bovine serum and 1% Antibiotic-Antimycotic at 37° C. in an atmosphere of 5% CO2 in air. The tumor cells were routinely subcultured twice weekly by trypsin-EDTA. The cells growing in an exponential growth phase were harvested and counted for tumor inoculation.
Each mouse was inoculated subcutaneously at the right flank with MSTO-211H tumor cells (10×10^6+50% matrigel/0.2 mL) for tumor development. Test subjects received vehicle (e.g., 0.5% CMC-Na+1% Tween80) beginning on day 7 after cell inoculation. […]
The major endpoint was to determine if the tumor growth could be delayed. Tumor size was measured twice a week in two dimensions using a caliper, and the volume was expressed in mm^3 using the formula: V=0.5 a×b^2 where a and b are the long and short diameters of the tumor, respectively. […]
Summary statistics, including mean and the standard error of the mean (SEM), were calculated for the tumor volume of each group at each time point. […]
One-tailed T test was performed to compare tumor volumes between two groups. All data were analyzed using GraphPad Prism 6.0. p<0.05 was considered to be statistically significant.

TEAD isoforms 1-4 = assay: TEAD thermal shift assay (TSA), outcome in words; assay type: binding, human
Text: (§1) Thermal shift assay (TSA) is a biophysical method to evaluate stability of proteins with change in temperature. The assay measures thermal denaturation temperature in varying conditions such as different drug concentration. For this example, fluorogenic dye was used that bind to unfolded proteins. SYPRO Orange binds non-specifically to hydrophobic surfaces, and water strongly quenches its fluorescence. When the protein unfolds, the exposed hydrophobic surfaces bind the dye, resulting in an increase in fluorescence by excluding water. Detergent micelles also bind the dye and increase background noise dramatically. Binding of small molecules to proteins leads to a stabilization against to thermal denaturation with the degree of thermal stabilization proportional to the strength of binding.
(§2) The study described in this example investigated the change in melting temperature (ΔTm) of TEAD isoforms 1-4 when treated with TEAD inhibitors.
(§3) Tris-HCL was dissolved in 5 mL of Cell culture grade water and allowed to dissolve completely. The pH was adjusted to 8 using NaOH. Additional assay buffer components were added in the order listed above. The buffer was mixed slowly.
(§4) Assay buffer was prepared according to the procedures outlined above and dispensed into test wells. Spyro orange was added to a concentration of 5× in the assay buffer, followed by test compound stock solution which was added to a concentration of 10 μM or 30 μM in the assay buffer.
(§5) The melt cycle was performed in Bio-RAD PCR instrument from 20-95° C. with ramp rate of 1° C./min.

TEAD1 = TEAD1 (Homo sapiens, UniProt P28347); assay: TEAD thermal shift assay (TSA); assay type: binding
TEAD1, sequence (P28347 whole entry): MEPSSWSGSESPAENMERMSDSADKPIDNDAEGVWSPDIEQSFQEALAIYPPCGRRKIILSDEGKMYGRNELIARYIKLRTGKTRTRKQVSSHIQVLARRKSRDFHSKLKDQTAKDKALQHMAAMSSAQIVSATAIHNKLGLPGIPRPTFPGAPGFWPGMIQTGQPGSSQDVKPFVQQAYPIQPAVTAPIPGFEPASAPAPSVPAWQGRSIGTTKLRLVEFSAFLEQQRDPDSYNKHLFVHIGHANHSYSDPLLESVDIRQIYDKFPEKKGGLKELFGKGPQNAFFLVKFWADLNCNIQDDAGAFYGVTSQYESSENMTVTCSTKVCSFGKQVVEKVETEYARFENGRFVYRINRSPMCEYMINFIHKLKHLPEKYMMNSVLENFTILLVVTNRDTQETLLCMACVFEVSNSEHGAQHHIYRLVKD
Text: as §1, §2, §3, §4, §5

TEAD2 = TEAD2 (Homo sapiens, UniProt Q15562); assay: TEAD thermal shift assay (TSA); assay type: binding
TEAD2, sequence (Q15562 whole entry): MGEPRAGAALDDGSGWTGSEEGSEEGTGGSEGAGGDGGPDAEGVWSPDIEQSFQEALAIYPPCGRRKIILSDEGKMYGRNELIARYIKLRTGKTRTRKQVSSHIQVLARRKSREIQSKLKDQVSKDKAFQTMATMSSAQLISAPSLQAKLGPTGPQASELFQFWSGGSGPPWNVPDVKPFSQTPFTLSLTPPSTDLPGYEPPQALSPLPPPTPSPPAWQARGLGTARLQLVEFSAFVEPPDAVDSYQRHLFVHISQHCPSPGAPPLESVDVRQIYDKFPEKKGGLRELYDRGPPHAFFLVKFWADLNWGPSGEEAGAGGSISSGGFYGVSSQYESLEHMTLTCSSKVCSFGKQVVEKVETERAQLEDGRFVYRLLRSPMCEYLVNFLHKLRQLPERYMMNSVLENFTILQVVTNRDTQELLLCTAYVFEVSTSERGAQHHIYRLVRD
Text: as §1, §2, §3, §4, §5

TEAD4 = TEAD4 (Homo sapiens, UniProt Q15561); assay: TEAD thermal shift assay (TSA); assay type: binding
TEAD4, sequence (Q15561 whole entry): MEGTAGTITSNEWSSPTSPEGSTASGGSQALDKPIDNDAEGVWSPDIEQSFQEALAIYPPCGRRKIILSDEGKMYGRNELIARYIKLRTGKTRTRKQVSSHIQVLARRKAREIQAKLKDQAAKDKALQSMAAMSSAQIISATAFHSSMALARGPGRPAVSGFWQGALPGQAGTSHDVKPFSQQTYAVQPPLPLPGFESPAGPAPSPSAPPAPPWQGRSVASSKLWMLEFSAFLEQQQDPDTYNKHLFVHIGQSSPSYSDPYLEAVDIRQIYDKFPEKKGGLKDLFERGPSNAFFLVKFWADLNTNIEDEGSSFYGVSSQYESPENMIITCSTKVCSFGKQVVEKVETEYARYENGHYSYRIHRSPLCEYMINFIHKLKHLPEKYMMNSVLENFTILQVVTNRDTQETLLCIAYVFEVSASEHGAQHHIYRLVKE
Text: as §1, §2, §3, §4, §5

TEAD3 = TEAD3 (Homo sapiens, UniProt Q99594); assay: TEAD thermal shift assay (TSA); assay type: binding
TEAD3, sequence (Q99594 whole entry): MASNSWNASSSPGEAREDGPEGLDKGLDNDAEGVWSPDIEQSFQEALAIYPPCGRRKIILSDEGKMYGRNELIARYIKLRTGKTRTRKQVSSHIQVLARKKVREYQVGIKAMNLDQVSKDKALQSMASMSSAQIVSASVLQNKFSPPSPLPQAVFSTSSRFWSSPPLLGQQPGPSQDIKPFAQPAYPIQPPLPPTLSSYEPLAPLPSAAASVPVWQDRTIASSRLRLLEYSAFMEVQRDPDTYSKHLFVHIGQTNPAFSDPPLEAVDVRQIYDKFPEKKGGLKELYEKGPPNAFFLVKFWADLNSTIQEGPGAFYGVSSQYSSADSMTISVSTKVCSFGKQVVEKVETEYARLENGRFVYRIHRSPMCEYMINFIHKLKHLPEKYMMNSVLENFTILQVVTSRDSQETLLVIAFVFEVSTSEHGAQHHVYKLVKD
Text: as §1, §2, §3, §4, §5

NCI-H226 cells = assay: Proliferation and cell viability assay, Cell Titer One; assay type: cell-based, human; conditions: Cell Titer One assay, 6 days
Procedure: (§6) Cell proliferation of a TEAD dependent NF2-null mesothelioma cell line, NCI-H226 was assayed using two different protocols. Results were confirmed in two different TEAD-non-dependent lung cancer cell lines, H23 and H28, were used as non-responsive controls, as indicated:
(§7) b) Cell Titer One (Promega, #G3582). The effect of the TEAD inhibitors disclosed herein on cell proliferation was also determined using the Promega Substrate Cell Titer Aqueous One Solution Reagent. The TEAD inhibitors were evaluated for the effects on cell proliferation responder (H226) and non-responder negative control cancer cell lines (CAMA1, H28), as well as non-transformed normal human cells (HUVEC, NHDF). Dissociated cells were resuspend in media (depending on cell line, either in DMEM, RPMI, or EMEM all with 10% FBS, with gentamicin as an antibiotic). Cells were seeded at 100 μL/well at 750 cells per well in 96-well plates and allowed to settle and attach. After an incubation of 24 hrs (37° C., 5% CO2, humidified incubator), 100 μL of test compound-containing media was added. A dilution series of 2000× concentrated stock of test compounds was prepared in DMSO, for final concentrations from 0.1 to 10,000 nM. After addition of test compound-containing media, cells were incubated for 6 days at 37° C., 5% CO2, humidified incubators). To measure cell density, 20 μL of Promega Substrate Cell Titer 96 Aqueous One Solution Reagent (Promega, #G3582) to each well was added according to the manufacturer's instructions. Plates were incubated at 37° C. for usually 3-8 hrs, to reach in the control cells (without compound) an OD of 1.5 at 490 nm. The OD was measured using Vmax [Molecular Devices] spectrophotometer plate reader. Media only-wells were used as background controls and cell densities normalized to DMSO vehicle control. EC50 were taken as the concentration achieving 50% of maximal growth inhibition.
For IC50 and EC50 data “A” indicates a value of less than 0.2 μM; the symbol “B” indicates a value in the range of from 0.2 μM up to 1 μM; and the symbol “C” indicates a value of greater than 1 μM. ND: no data.

NCI-H28 cells = assay: as above; assay type: cell-based; conditions: Homo sapiens, NCI-H28, 144 h; Cell Titer One assay, non-responder, 6 days
Procedure: as §6
as §7, with “To measure cell density, 20 μL of Promega Substrate Cell Titer 96 Aqueous One Solution Reagent (Promega, #G3582) to each well was added according to the manufacturer's instructions. Plates were incubated at 37° C. for usually 3-8 hrs, to reach in the control cells (without compound) an OD of 1.5 at 490 nm.” left out, “Media only-wells were used as background controls and cell densities normalized to DMSO vehicle control. EC50 were taken as the concentration achieving 50% of maximal growth inhibition.” left out

[1] = Ratio of Protein to Compound 1:1
[2] = Ratio of Protein to Compound 1:3

SMILES	change in tumor volume (in words) (MSTO-211H xenograft)	thermal shift / TEAD binding (in words) (TEAD isoforms 1-4)	TEAD1 ΔTm (TEAD1; [1])	TEAD1 ΔTm (TEAD1; [2])	TEAD2 ΔTm (TEAD2; [1])	TEAD2 ΔTm (TEAD2; [2])	TEAD4 ΔTm (TEAD4; [1])	TEAD4 ΔTm (TEAD4; [2])	TEAD3 ΔTm (TEAD3; [1])	TEAD3 ΔTm (TEAD3; [2])	IC50 (NCI-H226 cells; Homo sapiens, NCI-H226, 144 h)	IC50 (NCI-H28 cells)	IC50 (NCI-H226 cells)
Cn1cnc(-c2cc([C@@]3(C)CCNC3=O)ccc2Nc2ccc(C(F)(F)F)cc2)c1 (single isomer, unassigned) [Compound 5, 3-methyl-3-(3-(1-methyl-1H-imidazol-4-yl)-4-((4-(trifluoromethyl)phenyl)amino)phenyl)pyrrolidin-2-one]	tumor reduction was observed	strong TEAD1 and TEAD4 binding	7 °C	10 °C	8.5 °C	11.5 °C	1.5 °C	7 °C	0 °C	0 °C	< 200 nM	> 1000 nM	
Cn1cnc(-c2cc(C3(C)NC(=O)NC3=O)ccc2Nc2ccc(C(F)(F)F)cc2)c1 (single isomer, unassigned) [Compound 15, 5-methyl-5-(3-(1-methyl-1H-imidazol-4-yl)-4-((4-(trifluoromethyl)phenyl)amino)phenyl)imidazolidine-2,4-dione]													< 200 nM
